Target: T1, human GlyT1c transporter (Homo sapiens, UniProt P48067)
T1 sequence (P48067 1-706): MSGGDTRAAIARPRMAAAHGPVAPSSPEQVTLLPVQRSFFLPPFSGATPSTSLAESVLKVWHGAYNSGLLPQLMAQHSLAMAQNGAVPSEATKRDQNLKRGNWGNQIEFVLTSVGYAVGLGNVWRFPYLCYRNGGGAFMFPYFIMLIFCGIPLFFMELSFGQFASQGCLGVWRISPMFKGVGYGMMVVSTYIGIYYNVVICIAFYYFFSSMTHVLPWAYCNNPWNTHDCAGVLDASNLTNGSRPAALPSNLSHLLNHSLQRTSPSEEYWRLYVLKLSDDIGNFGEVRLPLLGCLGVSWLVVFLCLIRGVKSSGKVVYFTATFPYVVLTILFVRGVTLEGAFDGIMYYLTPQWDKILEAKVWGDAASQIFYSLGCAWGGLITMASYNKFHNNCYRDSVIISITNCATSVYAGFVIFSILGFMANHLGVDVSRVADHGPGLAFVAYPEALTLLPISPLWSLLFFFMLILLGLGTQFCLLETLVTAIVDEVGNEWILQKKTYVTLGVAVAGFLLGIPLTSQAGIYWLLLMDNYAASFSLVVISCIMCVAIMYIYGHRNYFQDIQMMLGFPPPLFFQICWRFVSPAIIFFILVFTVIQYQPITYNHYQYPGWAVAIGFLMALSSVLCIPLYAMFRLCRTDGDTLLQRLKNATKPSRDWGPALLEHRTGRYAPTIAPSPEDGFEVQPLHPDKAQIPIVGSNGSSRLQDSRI
Test: Radioligand binding assays using recombinant CHO cell membranes expressing human GlyT1
Details: radioligand binding to human GlyT1c transporter-expressing CHO cell membranes

Row | Compound | Ki | Ki (Ki)
1 | 2,2-difluoro-N-{(3R,4S)-4-(4-fluorophenyl)-1-[(1-methyl-1H-imidazol-4-yl)sulfonyl]pyrrolidin-3-yl}pentanamide [Example 700] | ≤ 10 µM | 
2 | 6-(cyclohexyloxy)-N-{(3R,4S)-4-(4-fluorophenyl)-1-[(1-methyl-1H-imidazol-4-yl)sulfonyl]pyrrolidin-3-yl}pyrimidin-4-amine [Example 721] | ≤ 0.1 µM | 
3 | 6-butoxy-N-{(3R,4S)-4-(4-fluorophenyl)-1-[(1-methyl-1H-imidazol-4-yl)sulfonyl]pyrrolidin-3-yl}pyrimidin-4-amine [Example 717] | ≤ 0.1 µM | 
4 | Cn1cnc(S(=O)(=O)N2C[C@@H](Nc3ccc(OC(F)(F)F)c(C#N)c3)[C@H](c3ccccc3)C2)c1 (racemic) [Example 102, 5-({trans-1-[(1-methyl-1H-imidazol-4-yl)sulfonyl]-4-phenylpyrrolidin-3-yl}amino)-2-(trifluoromethoxy)benzonitrile] |  | ≤ 1 µM
5 | Cc1cccc(CN[C@@H]2CN(S(=O)(=O)c3cn(C)cn3)C[C@H]2c2ccc(F)cc2)c1 (relative stereo) [Example 154, trans-4-(4-fluorophenyl)-N-(3-methylbenzyl)-1-[(1-methyl-1H-imidazol-4-yl)sulfonyl]pyrrolidin-3-amine] |  | ≤ 0.1 µM
6 | Cn1cnc(S(=O)(=O)N2C[C@@H](C(=O)c3cccc(F)c3)[C@H](c3ccc(F)cc3)C2)c1 (relative stereo) [Example 301] |  | ≤ 1 µM
7 | Cn1cnc(S(=O)(=O)N2C[C@@H](c3ccccc3)[C@](C)(NCc3ccc(C(F)(F)F)cc3Cl)C2)c1 (relative stereo) [Example 356, Trans-N-[2-chloro-4-(trifluoromethyl)benzyl]-3-methyl-1-[(1-methyl-1H-imidazol-4-yl)sulfonyl]-4-phenylpyrrolidin-3-amine] |  | ≤ 0.1 µM
8 | Cn1cnc(S(=O)(=O)N2C[C@@H](c3ccccc3)[C@](C)(Nc3cc(C(F)(F)F)ccn3)C2)c1 (relative stereo) [Example 388, N-{Trans-3-methyl-1-[(1-methyl-1H-imidazol-4-yl)sulfonyl]-4-phenylpyrrolidin-3-yl}-4-(trifluoromethyl)pyridin-2-amine] |  | ≤ 0.1 µM
9 | Cn1cnc(S(=O)(=O)N2C[C@@H](NCc3ccc(C(F)(F)F)cc3Cl)[C@H](c3ncccc3F)C2)c1 (relative stereo) [Example 761, Trans-N-[2-chloro-4-(trifluoromethyl)benzyl]-4-(3-fluoropyridin-2-yl)-1-[(1-methyl-1H-imidazol-4-yl)sulfonyl]pyrrolidin-3-amine] |  | ≤ 0.1 µM
10 | Cn1cnc(S(=O)(=O)N2C[C@@H](Nc3ccc(F)c(F)c3)[C@H](c3ncccc3F)C2)c1 (relative stereo) [Example 766, Trans-N-(3,4-difluorophenyl)-4-(3-fluoropyridin-2-yl)-1-[(1-methyl-1H-imidazol-4-yl)sulfonyl]pyrrolidin-3-amine] |  | ≤ 1 µM
11 | Cn1cnc(S(=O)(=O)N2CC(c3ccccc3)C3(COC(=O)N3Cc3ccc(C(F)(F)F)cc3)C2)c1 (stereo not drawn) [Example 407, Trans-7-[(1-methyl-1H-imidazol-4-yl)sulfonyl]-9-phenyl-1-[4-(trifluoromethyl)benzyl]-3-oxa-1,7-diazaspiro[4.4]nonan-2-one] |  | ≤ 10 µM
12 | Cn1cnc(S(=O)(=O)N2C[C@H](NCc3cnc(Br)s3)[C@@H](c3ccccc3)C2)c1 [Example 438, (3R,4S)-N-[(2-bromo-1,3-thiazol-5-yl)methyl]-1-[(1-methyl-1H-imidazol-4-yl)sulfonyl]-4-phenylpyrrolidin-3-amine] |  | ≤ 1 µM
13 | Cc1nc(CN[C@H]2CN(S(=O)(=O)c3cn(C)cn3)C[C@@H]2c2ccccc2)sc1Br [Example 559, (3R,4S)-N-[(5-bromo-4-methyl-1,3-thiazol-2-yl)methyl]-1-[(1-methyl-1H-imidazol-4-yl)sulfonyl]-4-phenylpyrrolidin-3-amine] |  | ≤ 1 µM
14 | CCCCc1cn([C@H]2CN(S(=O)(=O)c3cn(C)cn3)C[C@@H]2c2ccccc2)nn1 [Example 668, 4-butyl-1-{(3R,4S)-1-[(1-methyl-1H-imidazol-4-yl)sulfonyl]-4-phenylpyrrolidin-3-yl}-1H-1,2,3-triazole] |  | ≤ 10 µM
15 | Cn1cnc(S(=O)(=O)N2C[C@H](NCCCCC3OCC(C)(C)CO3)[C@@H](c3ccc(F)cc3)C2)c1 [Example 684] |  | ≤ 1 µM
16 | CCCCNC(=O)O[C@@H]1CN(S(=O)(=O)c2cn(C)cn2)C[C@H]1c1ccc(F)cc1 [Example 699, (3S,4R)-4-(4-fluorophenyl)-1-[(1-methyl-1H-imidazol-4-yl)sulfonyl]pyrrolidin-3-yl butylcarbamate] |  | ≤ 1 µM
17 | CCCCC1CN([C@H]2CN(S(=O)(=O)c3cn(C)cn3)C[C@@H]2c2ccc(F)cc2)C(=O)O1 (stereo partly drawn) [Example 863, 5-butyl-3-{(3R,4S)-4-(4-fluorophenyl)-1-[(1-methyl-1H-imidazol-4-yl)sulfonyl]pyrrolidin-3-yl}-1,3-oxazolidin-2-one] |  | ≤ 1 µM
18 | Cn1cnc(S(=O)(=O)N2C[C@H](c3ccc(F)cc3)[C@@H](N3CCS(=O)(=O)CC3)C2)c1 [Example 864, 4-{(3R,4S)-4-(4-fluorophenyl)-1-[(1-methyl-1H-imidazol-4-yl)sulfonyl]pyrrolidin-3-yl}thiomorpholine 1,1-dioxide] |  | ≤ 10 µM
19 | Cn1cnc(S(=O)(=O)N2CC3CCCCC3(NC(=O)c3ccc(Cl)cc3Cl)C2)c1 (stereo not shown) [Example 871, 2,4-dichloro-N-{2-[(1-methyl-1H-imidazol-4-yl)sulfonyl]octahydro-3aH-isoindol-3a-yl}benzamide] |  | ≤ 0.1 µM
20 | Cn1cnc(S(=O)(=O)N2CC3CCCN(C(=O)c4ccc(Cl)cc4Cl)C3C2)c1 (stereo not shown) [Example 873, (2,4-dichlorophenyl){6-[(1-methyl-1H-imidazol-4-yl)sulfonyl]octahydro-1H-pyrrolo[3,4-b]pyridin-1-yl}methanone] |  | ≤ 10 µM

The remaining lines, values ahead:

Row | Ki | Ki (Ki) | Compound
21 | ≤ 10 µM |  | 4-({(3R,4S)-1-[(1-methyl-1H-imidazol-4-yl)sulfonyl]-4-phenylpyrrolidin-3-yl}amino)-2,3-dihydro-1H-isoindol-1-one [Example 421]
22 |  | ≤ 10 µM | CCS(=O)(=O)N1C[C@@H](NC(=O)c2ccc(C(F)(F)F)cc2)[C@H](c2ccccc2)C1 (relative stereo) [Example 122, N-[trans-1-(ethylsulfonyl)-4-phenylpyrrolidin-3-yl]-4-(trifluoromethyl)benzamide]
23 |  | ≤ 10 µM | Cn1cnc(S(=O)(=O)N2C[C@@H](c3ccccc3)[C@](CO)(NCc3ccc(C(F)(F)F)cc3)C2)c1 (relative stereo) [Example 401]
24 |  | ≤ 0.1 µM | Cn1cnc(S(=O)(=O)N2C[C@@H]3c4ccccc4C[C@@]3(NCc3ccc(C(F)(F)F)cc3Cl)C2)c1 (relative stereo) [Example 885, trans-N-[2-chloro-4-(trifluoromethyl)benzyl]-2-[(1-methyl-1H-imidazol-4-yl)sulfonyl]-2,3,3a,8-tetrahydroindeno[1,2-c]pyrrol-8a(1H)-amine]
25 |  | ≤ 0.1 µM | Cn1cnc(S(=O)(=O)N2CC(Nc3cccc(OC(F)(F)F)c3)C(C3CCCN(C4CC4)C3)C2)c1 (stereo not shown) [Example 641, 4-[-1-cyclopropylpiperidin-3-yl]-1-[(1-methyl-1H-imidazol-4-yl)sulfonyl]-N-[3-(trifluoromethoxy)phenyl]pyrrolidin-3-amine]
26 |  | ≤ 0.01 µM | Cn1cnc(S(=O)(=O)N2C[C@H](Nc3cc(OCC(F)(F)F)ccn3)[C@@H](c3ccccc3)C2)c1 [Example 809, N-{(3R,4S)-1-[(1-methyl-1H-imidazol-4-yl)sulfonyl]-4-phenylpyrrolidin-3-yl}-4-(2,2,2-trifluoroethoxy)pyridin-2-amine]
27 |  | ≤ 0.1 µM | C=C(C)C1CCC(C)C(N[C@H]2CN(S(=O)(=O)c3cn(C)cn3)C[C@@H]2c2ccc(F)cc2)C1 (stereo partly drawn) [Example 867, (3R,4S)-4-(4-fluorophenyl)-1-[(1-methyl-1H-imidazol-4-yl)sulfonyl]-N-[2-methyl-5-(prop-1-en-2-yl)cyclohexyl]pyrrolidin-3-amine]
28 |  | ≤ 10 µM | Cn1cnc(S(=O)(=O)N2C[C@H](NC(c3ccccc3)C(F)(F)F)[C@@H](c3ccc(F)cc3)C2)c1 (stereo partly drawn) [Example 868, (3R,4S)-4-(4-fluorophenyl)-1-[(1-methyl-1H-imidazol-4-yl)sulfonyl]-N-(2,2,2-trifluoro-1-phenylethyl)pyrrolidin-3-amine]
29 |  | ≤ 0.01 µM | Cn1cnc(S(=O)(=O)N2CC3CCCCC3(NCc3ccc(C(F)(F)F)cc3Cl)C2)c1 (stereo not shown) [Example 869, N-[2-chloro-4-(trifluoromethyl)benzyl]-2-[(1-methyl-1H-imidazol-4-yl)sulfonyl]octahydro-3aH-isoindol-3a-amine]
30 |  | ≤ 0.1 µM | Cn1cnc(S(=O)(=O)N2CC3CCCCC3(NC(=O)c3cccc(C(F)(F)F)c3Cl)C2)c1 (stereo not shown) [Example 870, 2-chloro-N-{2-[(1-methyl-1H-imidazol-4-yl)sulfonyl]octahydro-3aH-isoindol-3a-yl}-3-(trifluoromethyl)benzamide]
31 |  | > 10 µM | CCCCCCN1CCCC2CN(S(=O)(=O)c3cn(C)cn3)CC21 (stereo not shown) [Example 872, 1-hexyl-6-[(1-methyl-1H-imidazol-4-yl)sulfonyl]octahydro-1H-pyrrolo[3,4-b]pyridine]

— patent US9650334B2 (AbbVie Deutschland GmbH & Co. KG, priority 2013, dated 2017)
